ChEMBL document CHEMBL5625228, “Design, synthesis, and bioactivity evaluation of novel amide/sulfonamide derivatives as potential anti-inflammatory agents against acute lung injury and ulcerative colitis” (Eur J Med Chem, 2023)
The source made the active and inactive calls. No cut-off for these calls is given here.

Assays:
[1] = tested on: J774.A1; assay: Antiinflammatory activity against mouse J774.A1 cells assessed as inhibition of LPS-induced IL-6 production pretreated with compound for 30 mins followed by LPS induction and measured after 24 hrs by ELISA analysis; assay type: functional; conditions: for inhibition (INH): time 1470 min, 24.5 h; for inhibition: time 1470.0 min; for INH: test concentration or dose not given here
[2] = tested on: J774.A1; assay: Antiinflammatory activity against mouse J774.A1 cells assessed as inhibition of LPS-induced TNF-alpha production pretreated with compound for 30 mins followed by LPS induction and measured after 24 hrs by ELISA analysis; assay type: functional; conditions: for inhibition (INH): time 1470 min, 24.5 h; for inhibition: time 1470.0 min; for INH: test concentration or dose not given here
[3] = tested on: J774.A1; assay: Antiinflammatory activity against mouse J774.A1 cells assessed as inhibition of LPS-induced TNF-alpha release preincubated with compound for 30 mins followed by LPS-induction and measured after 24 hrs by ELISA analysis; assay type: functional, cell-based
[4] = tested on: J774.A1; assay: Antiinflammatory activity against mouse J774.A1 cells assessed as inhibition of LPS-induced IL-6 release preincubated with compound for 30 mins followed by LPS-induction and measured after 24 hrs by ELISA analysis; assay type: functional, cell-based
[5] = tested on: J774.A1; assay: Antiinflammatory activity against LPS-induced mouse J774.A1 cells assessed as effect on IL-6 mRNA level preincubated with compound for 30 mins followed by LPS-induction and measured after 6 hrs by qPCR analysis; assay type: functional, cell-based; conditions: time 390.0 min
[6] = tested on: J774.A1; assay: Antiinflammatory activity against LPS-induced mouse J774.A1 cells assessed as downregulation of IL-6 mRNA level preincubated with compound for 30 mins followed by LPS-induction and measured after 6 hrs by qPCR analysis; assay type: functional, cell-based; conditions: time 390.0 min
[7] = tested on: J774.A1; assay: Antiinflammatory activity against LPS-induced mouse J774.A1 cells assessed as downregulation of TNF-alpha mRNA level preincubated with compound for 30 mins followed by LPS-induction and measured after 6 hrs by qPCR analysis; assay type: functional, cell-based; conditions: time 390.0 min

SMILES	inhibition (INH) [1] [%]	inhibition (INH) [2] [%]	further results
COc1ccc(NC(=O)CN2CCN(c3ncccn3)CC2)cn1	33.21	47.96	
COc1ccc(CN2CCN(CCS(=O)(=O)NCc3ccccn3)CC2)cc1	44.03	35.94	
O=[N+]([O-])c1cccc(CN2CCN(CCS(=O)(=O)NCc3ccccn3)CC2)c1	41.05	38.96	
COc1ccc(NC(=O)CN2CCN(Cc3cccc([N+](=O)[O-])c3)CC2)cn1	20.88	41.2	
O=S(=O)(CCN1CCN(Cc2ccccc2)CC1)NCc1ccccn1	54.87	43.92	
O=S(=O)(CCN1CCN(Cc2ccccc2)CC1)Nc1ccc2ncccc2c1	43.09	9.54	
O=[N+]([O-])c1cc(S(=O)(=O)NCc2ccccn2)ccc1N1CCN(c2ncccn2)CC1	20.86	18.24	
COc1ccc(CN2CCN(c3ccc(S(=O)(=O)NCc4ccccn4)cc3[N+](=O)[O-])CC2)cc1	53.8	18.06	
CC(=O)Nc1ncc(CN2CCN(CCS(=O)(=O)Nc3cccc4ccccc34)CC2)s1	43.92	25.56	
O=C(CN1CCN(Cc2ccccc2)CC1)NCc1ccccn1	23.3	40.91	
COc1ccc(NS(=O)(=O)CCN2CCN(Cc3ccc([N+](=O)[O-])cc3)CC2)cn1	42.48	38.83	
O=[N+]([O-])c1ccc(CN2CCN(CCS(=O)(=O)Nc3ccc4ncccc4c3)CC2)cc1	58.07	24.49	
COc1ccc(CN2CCN(CCS(=O)(=O)Nc3cccc4ccccc34)CC2)cc1	46.54	38.07	
O=[N+]([O-])c1cccc(CN2CCN(CCS(=O)(=O)Nc3cccc4ccccc34)CC2)c1	39.74	48.04	
O=C(CN1CCN(Cc2cccc([N+](=O)[O-])c2)CC1)Nc1cccc2ccccc12	36.57	49.62	
O=C(CN1CCN(Cc2ccccc2)CC1)Nc1cccc2ccccc12	37.08	40.65	
CC(=O)Nc1ncc(CN2CCN(c3ccc(S(=O)(=O)NCc4ccccn4)cc3[N+](=O)[O-])CC2)s1	40.3	31.13	
O=C(CN1CCN(Cc2ccc([N+](=O)[O-])cc2)CC1)Nc1cccc2ccccc12	51.42	44.12	
O=S(=O)(CCN1CCN(Cc2ccccc2)CC1)Nc1cccc2ccccc12	36.45	38.58	
O=C(CN1CCN(c2ccc([N+](=O)[O-])cc2)CC1)Nc1cccc2ccccc12	17.67	17.43	

SMILES	inhibition (INH) [1] [%]	inhibition (INH) [2] [%]	further results
O=[N+]([O-])c1ccc(CN2CCN(CCS(=O)(=O)NCc3ccccn3)CC2)cc1	49.16	41.37	
COc1cc(-c2csc(NC(=O)CCN3CCN(Cc4cccc([N+](=O)[O-])c4)CC3)n2)ccc1O	78.47	41.39	
COc1ccc(NS(=O)(=O)CCN2CCN(c3ccc([N+](=O)[O-])cc3)CC2)cn1	54.03	47.01	
O=[N+]([O-])c1cc(S(=O)(=O)NCc2ccccn2)ccc1N1CCN(Cc2ccccc2)CC1	69.3	50.22	IC50 [3]: 10.1 µM; IC50 [4]: 4.94 µM; Activity [5]: inactive
O=[N+]([O-])c1cccc(CN2CCN(c3ccc(S(=O)(=O)NCc4ccccn4)cc3[N+](=O)[O-])CC2)c1	71.33	43.51	IC50 [3]: 3.99 µM; IC50 [4]: 1.38 µM; Activity [5]: inactive
O=S(=O)(CCN1CCN(c2ncccn2)CC1)NCc1ccccn1	50.45	40.39	
O=C(CN1CCN(Cc2ccc([N+](=O)[O-])cc2)CC1)NCc1ccccn1	36.43	42.8	
COc1ccc(NC(=O)CN2CCN(c3ccc([N+](=O)[O-])cc3)CC2)cn1	26.57	35.31	
O=C(CN1CCN(c2ccc([N+](=O)[O-])cc2)CC1)Nc1ccccn1	54.4	41.4	
O=C(CCN1CCN(Cc2ccccc2)CC1)NCc1ccccn1	31	40.52	
O=C(CN1CCN(Cc2cccc([N+](=O)[O-])c2)CC1)NCc1ccccn1	21.88	39.82	
O=C(CN1CCN(c2ncccn2)CC1)NCc1ccccn1	40.7	38.32	
O=[N+]([O-])c1ccc(N2CCN(CCS(=O)(=O)NCc3ccccn3)CC2)cc1	60.1	51.16	
COc1ccc(NS(=O)(=O)CCN2CCN(c3ncccn3)CC2)cn1	42	37.77	
COc1ccc(CN2CCN(CC(=O)Nc3ccc(OC)nc3)CC2)cc1	19.35	38.65	
O=C(CCN1CCN(c2ccc([N+](=O)[O-])cc2)CC1)Nc1cccc2ccccc12			inhibition [1]: inactive; inhibition [2]: inactive
O=[N+]([O-])c1ccc(CN2CCN(CCS(=O)(=O)Nc3cccc4ccccc34)CC2)cc1	51.66	52.22	
O=S(=O)(CCN1CCN(c2ncccn2)CC1)Nc1cccc2ccccc12	10.6	12.33	
O=C(CN1CCN(c2ccc([N+](=O)[O-])cc2)CC1)NCc1ccccn1	49.31	57.51	
O=C(CCN1CCN(Cc2ccccc2)CC1)Nc1cccc2ccccc12	50.93	55.28	

SMILES	inhibition (INH) [1] [%]	inhibition (INH) [2] [%]	further results
O=C(CCN1CCN(Cc2ccc([N+](=O)[O-])cc2)CC1)NCc1ccccn1	36.81	25.79	
O=C(CN1CCN(c2ncccn2)CC1)Nc1cccc2ccccc12	9.078	18.5	
COc1ccc(NS(=O)(=O)CCN2CCN(Cc3cccc([N+](=O)[O-])c3)CC2)cn1	30.6	34.88	
O=[N+]([O-])c1ccc(CN2CCN(c3ccc(S(=O)(=O)NCc4ccccn4)cc3[N+](=O)[O-])CC2)cc1	69.93	42.19	IC50 [3]: 8.59 µM; Activity [6]: Active; IC50 [4]: 1.32 µM; Activity [7]: Active
COc1ccc(NS(=O)(=O)CCN2CCN(Cc3ccccc3)CC2)cn1	13.57	16.24	
COc1ccc(CN2CCN(CC(=O)NCc3ccccn3)CC2)cc1	3.21	38.64	
O=S(=O)(CCN1CCN(c2ncccn2)CC1)Nc1ccc2ncccc2c1	23.7	5.34	
CC(=O)Nc1ncc(CN2CCN(CC(=O)NCc3ccccn3)CC2)s1	19.68	36.32	
COc1ccc(CN2CCN(CC(=O)Nc3cccc4ccccc34)CC2)cc1			inhibition [1]: inactive; inhibition [2]: inactive
COc1ccc(CN2CCN(CCS(=O)(=O)Nc3ccc4ncccc4c3)CC2)cc1	50.52	31.97	
COc1ccc(NC(=O)CN2CCN(Cc3ccc([N+](=O)[O-])cc3)CC2)cn1	35.43	37.85	
COc1ccc(NC(=O)CN2CCN(Cc3cnc(NC(C)=O)s3)CC2)cn1	47.13	53.08	
O=[N+]([O-])c1cccc(CN2CCN(CCS(=O)(=O)Nc3ccc4ncccc4c3)CC2)c1	54.36	23.97	
COc1ccc(CN2CCN(CCS(=O)(=O)Nc3ccc(OC)nc3)CC2)cc1	55.78	39.86	
COc1ccc(NC(=O)CN2CCN(Cc3ccccc3)CC2)cn1	9.69	34.1	
O=C(CCN1CCN(c2ccc([N+](=O)[O-])cc2)CC1)NCc1ccccn1	19.64	20.88	
O=[N+]([O-])c1ccc(N2CCN(CCS(=O)(=O)Nc3ccc4ncccc4c3)CC2)cc1	63.27	41.31	
O=[N+]([O-])c1ccc(N2CCN(CCS(=O)(=O)Nc3cccc4ccccc34)CC2)cc1	54.08	48.59	
